These results are taken from paper PMC6934184, “Selective DNA-PKcs inhibition extends the therapeutic index of localized radiotherapy and chemotherapy” (The Journal of Clinical Investigation, 2019).

This assay concerns the target T1, PRKCH (PKC eta) (Homo sapiens, UniProt P24723).
T1 construct: purchased Thermo Fisher Scientific (Life Technologies) SelectScreen
Kind of assay: SelectScreen Z'LYTE. It counts as biochemical. In short, it runs like this:
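SelectScreen broad panel; activity (Z'LYTE, Adapta) plus binding formats. ATP: Km app for CSF1R Z'LYTE; 10 for CAMK1 Adapta. Readout = % per kinase.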

T1 sequence (P24723 whole entry): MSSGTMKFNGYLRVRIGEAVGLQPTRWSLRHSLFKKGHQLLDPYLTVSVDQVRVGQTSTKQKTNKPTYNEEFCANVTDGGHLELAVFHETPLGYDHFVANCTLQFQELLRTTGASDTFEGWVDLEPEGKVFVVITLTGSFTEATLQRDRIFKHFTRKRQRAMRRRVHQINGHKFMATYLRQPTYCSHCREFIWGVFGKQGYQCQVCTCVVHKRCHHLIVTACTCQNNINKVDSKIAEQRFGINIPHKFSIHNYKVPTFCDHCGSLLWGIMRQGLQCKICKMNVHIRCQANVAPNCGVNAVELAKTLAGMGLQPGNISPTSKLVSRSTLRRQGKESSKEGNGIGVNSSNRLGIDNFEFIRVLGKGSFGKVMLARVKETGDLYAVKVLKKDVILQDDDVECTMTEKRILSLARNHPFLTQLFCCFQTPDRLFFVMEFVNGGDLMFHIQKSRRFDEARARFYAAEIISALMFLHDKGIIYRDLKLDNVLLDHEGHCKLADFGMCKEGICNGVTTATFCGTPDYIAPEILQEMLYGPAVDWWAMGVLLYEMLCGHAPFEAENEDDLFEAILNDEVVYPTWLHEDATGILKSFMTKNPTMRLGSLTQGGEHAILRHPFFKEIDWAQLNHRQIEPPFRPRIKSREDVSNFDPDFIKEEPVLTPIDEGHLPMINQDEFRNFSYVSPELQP

The inhibition is the relative decrease from the control value, in per cent. For `CN(C(=O)CN1CCOCC1)c1ccc2sc3c(-c4cccc5c(=O)cc(N6CC7CCC(C6)O7)oc45)cccc3c2c1` [NU5455], the inhibition at 1 µM is -4.6%.
